Data reported in patent publication US12297220B2, “Phenethylamines and cathinones precursors” (Transcend Therapeutics, Inc., priority 2022, dated 2025).

Legend:
[1] = test system: rat forced swim test; experiment: Forced swim test (FST), antidepressant-like activity; type: in vivo
Method: The forced swim test (FST) is a classic model to assess the antidepressant-like activity of compounds that has been in use for over 40 years (Porsolt et al. (1977) Nature 266:730-732; Detke et al. (1995) Psychopharmacology 121:66-72). […] A single dose of 5 mg/kg methylone reduces immobility by approximately 50% compared to vehicle-treated controls, whereas a 15 mg/kg dose reduces immobility by nearly 100%. Accompanying changes in climbing and/or swimming behavior reflect noradrenergic and serotonergic activities of methylone, respectively.
All FST studies are performed and scored by an experimenter blind to treatment group and according to standard protocols. Briefly, rats are placed in a circular plexiglass container filled with water. Water temperature is maintained at 22-25° C. and changed for every animal. Day 1 (Training) consists of a 15 min acclimation trial, and Day 2 (Testing, 24 h later) consists of the 5 min test. A time sampling procedure is employed where animals are observed every 5 seconds for the duration of the test session (60 counts or 5 minutes) and scored for immobility (defined as the failure to struggle), swimming (defined as a circular movement around the tank), or climbing (defined as an upwards escape behavior). Data are expressed as the percent of the testing session (e.g., the number of immobility counts divided by 60). […]

[2] = test system: open field test; details: cited from earlier work
[3] = test system: mouse model of PTSD; experiment: Fear extinction recall in a mouse model of PTSD; type: in vivo; details: 30 mg/kg, IP
Method: FIGS. 1A-1D: Methylone improves fear extinction recall in a mouse model of PTSD. (FIG. 1A) Schematic of experimental design. A single CS—US (tone-shock) pairing on day 1 was followed by 6 CS presentations in a novel context (context B). Methylone or saline vehicle was injected 30 min prior to extinction training on day 2. On day 3, the time spent freezing to the CS was quantified. […] (FIG. 1C) The time freezing before vs. during each of 6 cues on day 3 (to control for locomotor effects) are shown. There was a significant cue×drug interaction (F(5, 130)=2.409, p<0.05). […] N=12 for methylone group (30 mg/kg, IP, orange diamonds) and N=16 for saline control group (black squares). *p<0.05
Effective PTSD treatments facilitate the disassociation between a traumatic memory and the patient's fear response, making cues for the traumatic memory evoke less of a fear response. This is modeled in the mouse fear extinction paradigm which takes place over 3 days. On day 1 (fear conditioning), mice are trained to acquire a “traumatic memory,” namely associating the conditioned stimulus (CS, tone) to the unconditioned stimulus (US, foot shock). On day 2 (extinction training), they are trained to forget the traumatic memory association by presenting the CS 6 times (with no US) in a novel environment. On day 3 (extinction recall), the mice are “asked” if that tone (CS) still elicits a fearful response, as measured by the time spent freezing when the tone is presented. Less time freezing means better extinction recall. Drugs that improve extinction recall reduce freezing time on day 3, and, therefore, show potential as a PTSD treatment.
Using these methods, prodrugs are administered to mice and tested for efficacy in the fear extinction model to evaluate their efficacy to treat PTSD and other memory disorders.

[4] = test system: PTSD; details: clinical case series of 21 individuals; cited from earlier work
[5] = test system: healthy volunteers; details: self-administration; cited from earlier work
[6] = Chemical stability in phosphate buffer without hepatocytes (negative control); type: physicochemical; details: phosphate buffer pH 6.8 at 37° C., up to 2 hours
Method: (§1) Bioactivation Potential of Prodrug Candidates: After a prodrug is synthesized, its bioactivation potential to release methylone is assessed under in vitro conditions. As the prodrugs are designed to be enzymatically activated by esterases and amidases/peptidases found in the blood and/or the liver, each prodrug is incubated in human and rat whole blood as well as liver hepatocytes. In these assays, the percentage of released parent methylone and of remaining prodrug is measured at different timepoints for a period of 2 hours. A chemical stability assessment of each prodrug is also performed under various pH conditions to ensure that the methylone released is a result of enzymatic hydrolysis. Prodrugs that show in vitro bioactivation are then administered (IV/PO) to rats, and blood samples are collected to assess the pharmacokinetic profile of each prodrug.
When compound 50 was incubated with human hepatocytes under the conditions described above, at t=60 minutes, approximately 100% of the prodrug had been converted to methylone with a total recovery of approximately 100%.

[7] = test system: human hepatocytes; experiment: Prodrug bioactivation / metabolic stability in hepatocytes; type: in vitro ADME; details: t=60 minutes
Method: as §1
For example, the metabolic stability of prodrug candidates to release methylone could be assessed in vitro according to the following protocol: cryopreserved human and rat hepatocytes are thawed in recovery media and diluted in plating media to a viable cell density of 1×10^6 cells/mL. Viability is determined by trypan blue exclusion. […] All samples, including analytical standards, are analyzed by LC-MS/MS to measure the concentration of methylone released and the concentration of the corresponding prodrug remaining. […]

[8] = test system: fear extinction recall; details: 7.5 mg/kg, 30 minutes prior to extinction training; cited from earlier work

SMILES	antidepressant-like effect in the rat forced swim test [1]	thigmotaxis (time spent hugging the perimeter of the open field) ([2]; 5, 10, 20 mg/kg, SC, rats)	locomotor activity in the OFT ([2]; rat, in vivo)	time spent in the center vs the periphery in the OFT ([2]; rat, in vivo)	fear extinction recall [3]	Freezing time during the first cue on day 3 (extinction recall) compared to saline ([3]; 30 min prior to extinction training, p<0.05)	locomotor changes on day 3 ([3]; p>0.05)	patients with improved symptoms of PTSD [4] [%]	heart rate [5]	systolic and diastolic blood pressure [5]	release of parent methylone in absence of hepatocytes [6]	prodrug converted to methylone [7]	reduced freezing compared to saline injected controls (extinction recall) [8] [%]
CNC(C)C(=O)c1ccc2c(c1)OCO2 (centres unmarked) [Methylone, methylone]	robust, dose-dependent antidepressant-like effect	reduce thigmotaxis	increases locomotor activity	reduces time spent in the center vs the periphery	significantly improves fear extinction recall	significantly reduced	No locomotor changes were observed	81	increase in heart rate	significant increase	–	–	–
CC(OC(=O)C(C)C)OC(=O)N(C)C(C)C(=O)c1ccc2c(c1)OCO2 (centres unmarked) [compound 50, 1-(((1-(benzo[d][1,3]dioxol-5-yl)-1-oxopropan-2-yl)(methyl)carbamoyl)oxy)ethyl isobutyrate]	–	–	–	–	–	–	–	–	–	–	no parent methylone was released	approximately 100%	–
CNC(C)Cc1ccc2c(c1)OCO2 (centres unmarked) [MDMA]	–	–	–	–	–	–	–	–	–	significant increase	–	–	35
